Tests used:
mice = test: In vivo toxicity study in mice; details: for Survival Rate After 5 days (%): injected
Description: The in vivo toxicological effect of NAALADase inhibition has been examined in mice. […] Representative disclosure may be found in U.S. Pat. Nos. 5,672,592, 5,795,877, 5,863,536 and 5,880,112, and allowed U.S. patent applications Ser. Nos. 08/825,997, 08/833,628, 08/835,572 and 08/842,360, for which the issue fees have been paid, the entire contents of which patents and applications are herein incorporated by reference.
The mice were observed two times per day for 5 consecutive days.

TGF-β1 [1] = test: TGF-β1 concentration in ischemic cell cultures; format: cell-based; details: added to ischemic cultures (20-minute ischemia)
Description: (§1) The compounds of the invention were used to produce a neuroprotective effect in both in vitro and in vivo cell culture models of stroke.

[2] = system: middle cerebral artery occlusion (MCAO) in rats; test: Neuroprotection following middle cerebral artery occlusion (MCAO) in rats; format: in vivo
Description: The effect of TGF-β neutralizing antibodies on the neuroprotection afforded by 2-(phosphonomethyl)-pentanedioic acid following middle cerebral artery occlusion (MCAO) in rats was also studied to give a more relevant in vivo model of stroke.
Thus, it was appreciated that the regulation of TGF-βs may have implications, not only in its utility in stroke, but also in other neurological and psychiatric diseases. In addition, this mechanism may have implications in myelination, prostate cancer, inflammation, diabetes, and angiogenesis.

ischemic cultures = test: Neuroprotection in ischemic cell culture model of stroke with neutralizing antibodies; format: cell-based; details: for neuroprotective effect in presence of FGF antibody: FGF neutralizing antibody added; for neuroprotective effect in presence of TGF-β neutralizing antibodies: TGF-β neutralizing antibodies added
Experimental: as §1
TGF-β neutralizing antibodies were then added to determine if the neuroprotective effect would be blocked. The neuroprotective effect of 2-(phosphonomethyl)-pentanedioic acid was blocked by TGF-βs neutralizing bodies in this cell culture model. However, when other growth factor antibodies, such as FGF antibody, were added, the neuroprotective effect of 2-(phosphonomethyl)-pentanedioic acid was not reversed in culture.

TGF-β1 [3] = test: TGF-β1 levels by microdialysis in MCAO rats; format: in vivo; details: FIG. 6
TGF-β2 = TGF-β2 concentration in ischemic cell cultures; format: cell-based; details: added to ischemic cultures (20-minute ischemia)
Description: as §1

[4] = biological target: T1, Myeloperoxidase (MPO) isolated from human polymorphonuclear leukocytes (Homo sapiens, UniProt P05164); details: guaiacol substrate, reference data; cited from earlier work
T1 construct: Myeloperoxidase (MPO) isolated from human polymorphonuclear leukocytes; purchased Calbiochem 475911; host or cells: human polymorphonuclear leukocytes (natural source)
T1 sequence (P05164 279-745 limits assumed): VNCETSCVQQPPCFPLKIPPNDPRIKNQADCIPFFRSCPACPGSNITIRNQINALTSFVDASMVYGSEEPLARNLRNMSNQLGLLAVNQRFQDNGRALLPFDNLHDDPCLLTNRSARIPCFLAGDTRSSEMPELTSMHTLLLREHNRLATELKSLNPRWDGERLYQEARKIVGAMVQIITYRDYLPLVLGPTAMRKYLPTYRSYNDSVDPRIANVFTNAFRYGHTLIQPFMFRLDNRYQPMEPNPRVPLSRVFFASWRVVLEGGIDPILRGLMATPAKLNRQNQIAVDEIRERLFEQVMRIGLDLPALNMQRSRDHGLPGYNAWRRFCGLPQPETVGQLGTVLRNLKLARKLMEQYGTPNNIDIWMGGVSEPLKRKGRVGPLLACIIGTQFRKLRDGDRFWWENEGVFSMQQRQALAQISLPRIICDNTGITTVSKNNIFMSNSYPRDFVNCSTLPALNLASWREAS
T1 sequence (P05164 165-273 limits assumed): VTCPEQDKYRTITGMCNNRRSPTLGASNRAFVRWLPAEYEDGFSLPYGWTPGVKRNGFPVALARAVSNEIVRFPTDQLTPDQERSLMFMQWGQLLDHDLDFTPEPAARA

[5] = listed as 2-(phosphonomethyl)-pentanedioic acid

In the case of `O=C(O)CCC(CP(=O)(O)O)C(=O)O` (stereo not drawn) [Compound 3, 2-(phosphonomethyl)-pentanedioic acid], the “Survival Rate After 5 days (%)” value (mice; dose 1 mg/kg) is reported as 100%, the “Survival Rate After 5 days (%)” value (mice; dose 5 mg/kg) is reported as 100% and the “Survival Rate After 5 days (%)” value (mice; dose 10 mg/kg) is reported as 100%. For the same compound, the “Survival Rate After 5 days (%)” value (mice; dose 30 mg/kg) was 100%, the “Survival Rate After 5 days (%)” value (mice; dose 100 mg/kg) was 100% and the “Survival Rate After 5 days (%)” value (mice; dose 300 mg/kg) was 100%. The “Survival Rate After 5 days (%)” value (mice; dose 500 mg/kg) was 66.7%, the “toxicological effect in vivo” value (mice; observed for 5 days) was “non-toxic” and the “level of TGF-β1” value (TGF-β1 [1]) was “increased significantly”. The neuroprotection ([2]; MCAO rats) was “provided neuroprotection”, the “neuroprotective effect after TGF-β neutralizing antibodies” value ([2]; MCAO rats pre-treated with TGF-β neutralizing antibodies, FIG. 5) was “significantly attenuated” and the “neuroprotective effect in presence of FGF antibody” value (ischemic cultures; [5]) was “not reversed”. The “neuroprotective effect in presence of FGF antibody” value (ischemic cultures; listed as compound 3) was “non-reversal”, the “neuroprotective effect in presence of TGF-β neutralizing antibodies” value (ischemic cultures; [5]) was “blocked” and the “neuroprotective effect in presence of TGF-β neutralizing antibodies” value (ischemic cultures; listed as compound 3) was “reversal”. For the same compound, the “TGF-β1 during occlusion and reperfusion” value (TGF-β1 [3]) was “significant rise” and the “level of TGF-β2” value (TGF-β2) was “increased significantly”.
In the case of `CC(Cc1ccc(O)c(O)c1)C(C)Cc1ccc(O)c(O)c1` (stereo not drawn) [NDGA (Nordihydroguaretic Acid), Nordihydroguaretic Acid], the IC50 [4] is given as 1000 nM.

— patent publication US20030017965A1, “Methods for treating certain diseases using naaladase inhibitors” (priority 1998, published 2003)
